Measurements published in patent US9656953B2, “Inhibition of cell proliferation” (University of South Florida, priority 2005, dated 2017).
Entries after “also recorded” stand apart in the source; their conditions may differ.

What was measured:
Rb:Raf-1 binding = molecular target: T1, Rb:Raf-1 binding (Homo sapiens, UniProt P04049+P06400); test: GST-Rb/GST-Raf-1 ELISA; details: for IC50: IC50 (nM), inhibition of the Rb:Raf-1 binding, concentration that inhibits the Rb:Raf-1 binding by 50%, triplicate; for inhibition at 20 µM: read-out: % Inhibition at 20 μM, inhibition of Rb:Raf-1 binding, compound at 20 μM
T1 construct: a glutathione S-transferase (GST) Raf-1 (1-149aa) overnight at 4° C; made in house
T1 sequence (P04049 1-149 limits assumed): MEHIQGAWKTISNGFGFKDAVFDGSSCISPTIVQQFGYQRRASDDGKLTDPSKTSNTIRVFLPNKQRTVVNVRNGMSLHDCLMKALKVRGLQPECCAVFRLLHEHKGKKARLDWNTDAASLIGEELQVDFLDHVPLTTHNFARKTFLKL
T1 sequence (P06400 whole entry): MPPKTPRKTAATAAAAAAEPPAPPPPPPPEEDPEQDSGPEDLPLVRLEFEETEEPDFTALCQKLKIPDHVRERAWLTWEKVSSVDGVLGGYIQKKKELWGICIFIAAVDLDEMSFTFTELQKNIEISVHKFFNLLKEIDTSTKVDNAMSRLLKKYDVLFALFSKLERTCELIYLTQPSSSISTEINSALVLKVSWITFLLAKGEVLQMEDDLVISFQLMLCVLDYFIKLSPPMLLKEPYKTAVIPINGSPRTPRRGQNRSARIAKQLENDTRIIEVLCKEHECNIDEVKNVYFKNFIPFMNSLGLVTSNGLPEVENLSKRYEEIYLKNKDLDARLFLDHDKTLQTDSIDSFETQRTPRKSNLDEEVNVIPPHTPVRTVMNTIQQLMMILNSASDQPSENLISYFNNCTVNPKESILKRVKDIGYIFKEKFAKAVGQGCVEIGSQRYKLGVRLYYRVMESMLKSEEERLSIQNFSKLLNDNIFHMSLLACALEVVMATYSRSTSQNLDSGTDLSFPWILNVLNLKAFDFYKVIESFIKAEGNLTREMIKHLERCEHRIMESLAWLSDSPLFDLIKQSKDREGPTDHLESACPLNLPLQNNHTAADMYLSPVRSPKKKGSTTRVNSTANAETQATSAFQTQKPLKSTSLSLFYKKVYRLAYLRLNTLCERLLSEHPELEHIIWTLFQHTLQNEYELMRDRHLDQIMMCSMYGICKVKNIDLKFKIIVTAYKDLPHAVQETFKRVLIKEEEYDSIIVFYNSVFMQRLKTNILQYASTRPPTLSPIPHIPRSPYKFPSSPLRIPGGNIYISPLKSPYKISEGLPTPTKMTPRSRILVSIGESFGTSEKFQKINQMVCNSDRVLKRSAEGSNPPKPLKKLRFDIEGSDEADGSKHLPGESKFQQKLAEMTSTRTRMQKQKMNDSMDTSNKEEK
Experimental: In vitro library screening assays. Enzyme Linked ImmunoSorbent Assay (ELISA) 96-well plates were coated with 1 μg/mL of a glutathione S-transferase (GST) Raf-1 (1-149aa) overnight at 4° C. Subsequently the plates were blocked and GST Rb at 20 μg/mL was rotated at room temperature (RT) for 30 minutes in the presence or absence of the compounds at 20 micromolar (μM). GST-Rb +/− compounds were then added to the plate and incubated for 90 minutes (min) at 37° C. The amount of Rb bound to Raf-1 was detected by Rb polyclonal antibody (Santa Cruz Biotechnology, Santa Cruz, Calif.) 1:1000 incubated for 60 min at 37° C. Donkey-anti-rabbit-IgG-HRP (1:10,000) was added to the plate and incubated at 37° C. for 60 minutes. The color was developed with orthophenylenediamine (Sigma, St. Louis, Mo.) and the reaction was terminated with 3 molar (M) H2SO4. Absorbance was read at 490 nanometers (nm). To determine disruption of Rb to E2F1, Phb, or HDAC1 the above protocol was used with the exception of coating GST Rb on the ELISA plate and adding the drugs in the presence or absence of GST E2F1, Phb, or HDAC1. […] Prohibitin monoclonal antibody was used at 1:1000 to detect the amount of Rb bound to Prohibitin. For disruption of MEK-Raf-1 binding ELISAs, Raf-1 1 microgram/milliliter (μg/mL) was coated on the plate and GST-MEK (20 μg/mL) was incubated +/− the compounds for 30 minutes at room temperature. Mek1 polyclonal antibody was used at 1:1000 to detect the binding of Raf-1 to Mek1. The IC50 concentrations for the Rb:Raf-1 inhibitors were determined by plotting with Origin 7.5 software (Origin, Northampton, Mass.).
A screen was developed to identify small molecule inhibitors of the Rb:Raf-1 interaction. A diversity set, comprising 1981 compounds (National Cancer Institute, Bethesda, Md.) was examined using a glutathione S-transferase-retinoblastoma/glutathione S-transferase-Raf-1 kinase Enzyme-Linked ImmunoSorbent Assay screen (GST-Rb/GST-Raf-1 ELISA).

[1] = molecular target: binding of Raf-1 to Rb in U937 cells (Homo sapiens, UniProt P04049+P06400); test: Immunoprecipitation-Western blot, serum stimulated U937 cells; details: U937 cells serum stimulated 2 hours, 20 μM
Chain of binding of Raf-1 to Rb in U937 cells (P06400 whole entry): as above
Chain of binding of Raf-1 to Rb in U937 cells (P04049 whole entry): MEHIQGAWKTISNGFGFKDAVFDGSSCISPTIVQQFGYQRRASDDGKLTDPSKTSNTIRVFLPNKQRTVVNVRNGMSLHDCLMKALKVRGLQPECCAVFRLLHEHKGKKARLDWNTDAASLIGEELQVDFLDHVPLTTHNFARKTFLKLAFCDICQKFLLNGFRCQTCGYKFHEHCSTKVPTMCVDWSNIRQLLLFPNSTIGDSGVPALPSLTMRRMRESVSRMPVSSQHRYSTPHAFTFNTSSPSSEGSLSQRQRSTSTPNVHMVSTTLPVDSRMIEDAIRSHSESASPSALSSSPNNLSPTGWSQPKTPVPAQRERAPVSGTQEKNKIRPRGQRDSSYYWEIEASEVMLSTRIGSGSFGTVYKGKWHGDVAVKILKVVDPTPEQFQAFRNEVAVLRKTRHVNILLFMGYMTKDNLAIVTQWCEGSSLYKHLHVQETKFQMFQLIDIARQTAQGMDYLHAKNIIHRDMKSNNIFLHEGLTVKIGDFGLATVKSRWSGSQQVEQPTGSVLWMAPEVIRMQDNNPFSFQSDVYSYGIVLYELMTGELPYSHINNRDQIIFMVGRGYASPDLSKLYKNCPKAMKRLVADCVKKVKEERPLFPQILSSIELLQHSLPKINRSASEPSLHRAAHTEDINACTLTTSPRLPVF
Experimental: Lysate preparation, pmmunoprecipitation, and pestern plotting. Lysates from cells treated with different agents were prepared by NP-40 lysis as described earlier (Wang 1998). […] Physical interaction between proteins in vivo was analyzed by immunoprecipitation—Western blot analyses with 200 μg of lysate with 1 μg of the indicated antibody as previously described (Wang 1998). Polyclonal E2F1 and Cyclin D were obtained from Santa Cruz Biotechnology. Monoclonal Rb and Raf-1 were supplied by BD Transduction laboratories (San Jose, Calif.). Polyclonal antibodies to phospho-Rb (807,811) phospho-MEK1/2, MEK1/2, phospho-Erk1/2 and ERK1/2 were supplied by Cell Signaling (Danvers, Mass.).
U937 cells were serum starved for 48 hours and subsequently serum stimulated for 2 hours in the presence or absence of 20 μM of the compounds.

[2] = tested on: Human aortic endothelial cells (HAECs); test: Matrigel angiogenic tubule formation; assay type: cell-based; details: 20 μM
Experimental: Matrigel assays. […] A total of 100 μl of thawed Matrigel was added to 96-well tissue culture plates, followed by incubation at 37° C. for 60 minutes to allow polymerization. […] Capillary tube formation assessed by using a Leica DMIL phase contrast microscope.
An experiment was performed to determine whether angiogenic tubule formation could be inhibited by the disclosed compounds.

[3] = molecular target: binding of Raf-1 to GST Rb beads (Homo sapiens, UniProt P04049+P06400); test: GST pull-down, U937 lysates; details: 20 μM, asynchronous U937 lysates, western blotting
Chain of binding of Raf-1 to GST Rb beads (P06400 whole entry): as the sequence (P06400 whole entry) above
Chain of binding of Raf-1 to GST Rb beads (P04049 whole entry): as the sequence (P04049 whole entry) above
Experimental: First, 200 micrograms (μg) of U937 asynchronous lysates were pre-incubated with 10 μM of the indicated drugs or 1 μM of the Raf-1 peptide for 30 minutes at 4° C. Next, 200 μg of the U937 lysates were incubated with glutathione beads carrying an equal amount of the GST fusion proteins in 2001 of protein binding buffer (20 mM Tris [pH 7.5], 50 mM KCL, 0.5 mM EDTA, 1 mM dithiothreitol, 0.5% NP-40, 3 mg of bovine serum albumin/mL) at 4° C. for 2 h.
Asynchronous U937 lysates were incubated with GST-Rb beads in the presence or absence of the selected compounds or an 8 amino acid Raf-1 peptide and the binding of Raf-1 assessed by western blotting.

Rb-E2F1 = molecular target: T2, Rb-E2F1 (Homo sapiens, UniProt P06400+Q01094); test: GST ELISA, Rb-E2F1 binding; details: 20 μM
T2 construct: made in house
T2 sequence (P06400 whole entry): as the sequence (P06400 whole entry) above
T2 sequence (Q01094 whole entry): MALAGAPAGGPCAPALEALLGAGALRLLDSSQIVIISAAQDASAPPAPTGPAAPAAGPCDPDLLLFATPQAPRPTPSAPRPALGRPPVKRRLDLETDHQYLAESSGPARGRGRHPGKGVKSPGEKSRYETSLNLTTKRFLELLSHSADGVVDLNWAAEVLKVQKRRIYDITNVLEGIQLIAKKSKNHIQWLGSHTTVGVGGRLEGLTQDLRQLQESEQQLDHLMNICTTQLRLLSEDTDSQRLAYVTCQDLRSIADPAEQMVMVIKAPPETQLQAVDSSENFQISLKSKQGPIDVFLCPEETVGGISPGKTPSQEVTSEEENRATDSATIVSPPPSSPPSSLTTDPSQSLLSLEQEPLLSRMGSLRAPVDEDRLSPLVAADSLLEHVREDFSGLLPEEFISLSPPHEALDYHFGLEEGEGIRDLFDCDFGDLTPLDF
Source text: In vitro library screening assays. […] Absorbance was read at 490 nanometers (nm).

| SMILES | IC50 (Rb:Raf-1 binding) [nM] | inhibition at 20 µM (Rb:Raf-1 binding) [%] | binding of Raf-1 to Rb in intact cells [1] | angiogenic tubule formation in matrigel [2] | binding of Raf-1 to GST Rb beads [3] | inhibition of Rb-E2F1 binding / selectivity in words (Rb-E2F1) |
| --- | --- | --- | --- | --- | --- | --- |
| N=C(N)SCc1ccc(Cl)cc1Cl [(1), 2,4-dichlorobenzyl carbamimidothioate] | 81 ± 4 | 100 | inhibited the binding of Raf-1 to Rb significantly | inhibit angiogenic tubule formation; also recorded: significantly inhibited the angiogenic tubule formation | inhibited the binding of GST Rb beads to endogenous Raf-1 |  |
| N=C(N)SCc1ccc(Cl)c2ccccc12 [(2), (4-chloronaphthalen-1-yl)methyl carbamimidothioate] | 283 ± 46 | 95 | inhibited the binding of Raf-1 to Rb significantly | inhibit angiogenic tubule formation; also recorded: significantly inhibited the angiogenic tubule formation | inhibited the binding of GST Rb beads to endogenous Raf-1 | selective for inhibiting Rb:Raf-1 and not Rb-E2F1 binding |
